This experiment has as its system 5xFAD mice. In words: Fluoro-Jade staining of brain sections of 5xFAD mice treated with Nec-1S in vivo. On the set-up: species or system mouse. The conditions noted are these: 8-month-old 5xFAD mice; 10 mg/kg i.p. once, then 0.5 mg/ml in drinking water for 21 days; vs vehicle. On the procedure:
Specifically, mice receive a single intraperitoneal injection of 10 mg/kg Nec1s after which they were given Nec1S in their drinking water at a concentration of 0.5 mg/ml for 21 days.
Immunohistochemistry: Coronal sections from hippocampus and temporal gyms of control (CTL) and Alzheimer's disease (AD) cases were pre-mounted on coated slides and washed in TBS. After blocking in TBSB (TBS, 2% BSA, and 0.1% Triton X), tissue was incubated overnight at 4° C. with the following primary antibodies: RIPK1 (1:200, BD Transduction Laboratories, catalog number 610459), MLKL (1:200, Novus Biologicals, catalog number NBP1-56729), RIPK3 (1:200, RD Systems catalog number MAB7604), pMLKL Ser358/Thr357 (1:200, Abcam, catalog number ab187091), pMLKL (1:200, SAB Signalway Antibody, catalog number 12837), NeuN (1:200, Cell Signaling, catalog number 024307P), Ibal (1:200, Wako, catalog number 09-19741), GFAP (1:200, Cell Signaling, catalog number 3670S), Caspase 3 (1:200, Millipore, catalog number AB3623), phospho-tau pSer202/Thr205 (ATB, 1:200, Thermo Fisher Scientific, catalog number MN1020), and pan-Cadherin (1:200, Abcam, catalog number ab6528 and ab6529). CP13 was a kind gift from Dr. Peter Davies. […]

For `CN1C(=O)NC(Cc2c[nH]c3c(Cl)cccc23)C1=O` (stereo not shown) [Nec1S, 5-((7-chloro-1 H-indol-3-yl)methyl)-3-methylimidazolidine-2,4-dione], the Fluoro-Jade-positive neurons result was “fewer Fluoro-Jade-positive neurons compared to vehicle-treated 5xFAD mice”.

(Values after patent US20180094248A1, “Necroptosis Signaling as a Therapeutic Target for Alzheimer's Disease” (Arizona Board of Regents on behalf of Arizona State …, priority 2016, published 2018).)
